# Measured values: ChEMBL document CHEMBL5729737, “FGFR4 inhibitor, preparation method therefor, and applications thereof” (2023)
# Tests used:
# [1] = target: Fibroblast growth factor receptor 4 (Homo sapiens, UniProt P22455); assay: 5) 10 μL of EDTA and a test solution comprising labeled antibody were added, and the plate was incubated for 1 hour at room temperature. […] 7) The inhibition rates were calculated according to the fluorescence signal values.
# [2] = target: Fibroblast growth factor receptor 1 (Homo sapiens, UniProt P11362); assay: Enzymologic Experiment of FGFR1: In this experiment, the inhibitory effect of the compounds on FGFR1 kinase activity was tested by a fluorescence resonance energy transfer (TR-FRET) method, and the half maximal inhibitory concentration (IC50) of the compounds on the FGFR1 kinase activity was determined. 1) 1˜5 μL of FGFR1 enzyme solution was added to a 384-well plate, and the final concentration of the enzyme was 0.1˜5 nM. 2) 1˜5 μL of diluted solution in gradient of the compound was added. 3) 1˜5 μL of a substrate mixture containing substrate polypeptide with a final concentration of 5˜50 nM and ATP with a final concentration of 10˜200 μM was added. 4) The mixture was incubated for 0.5˜3 hours at room temperature. 5) 10 μL of EDTA and a test solution comprising labeled antibody were added, and the plate was incubated for 1 hour at room temperature. 6) The fluorescence signal values of each plate were determined by a microplate reader at 665 nm.7) The inhibition rates were calculated according to the fluorescence signal values.
# Fibroblast growth factor receptor 1, sequence (P11362 whole entry): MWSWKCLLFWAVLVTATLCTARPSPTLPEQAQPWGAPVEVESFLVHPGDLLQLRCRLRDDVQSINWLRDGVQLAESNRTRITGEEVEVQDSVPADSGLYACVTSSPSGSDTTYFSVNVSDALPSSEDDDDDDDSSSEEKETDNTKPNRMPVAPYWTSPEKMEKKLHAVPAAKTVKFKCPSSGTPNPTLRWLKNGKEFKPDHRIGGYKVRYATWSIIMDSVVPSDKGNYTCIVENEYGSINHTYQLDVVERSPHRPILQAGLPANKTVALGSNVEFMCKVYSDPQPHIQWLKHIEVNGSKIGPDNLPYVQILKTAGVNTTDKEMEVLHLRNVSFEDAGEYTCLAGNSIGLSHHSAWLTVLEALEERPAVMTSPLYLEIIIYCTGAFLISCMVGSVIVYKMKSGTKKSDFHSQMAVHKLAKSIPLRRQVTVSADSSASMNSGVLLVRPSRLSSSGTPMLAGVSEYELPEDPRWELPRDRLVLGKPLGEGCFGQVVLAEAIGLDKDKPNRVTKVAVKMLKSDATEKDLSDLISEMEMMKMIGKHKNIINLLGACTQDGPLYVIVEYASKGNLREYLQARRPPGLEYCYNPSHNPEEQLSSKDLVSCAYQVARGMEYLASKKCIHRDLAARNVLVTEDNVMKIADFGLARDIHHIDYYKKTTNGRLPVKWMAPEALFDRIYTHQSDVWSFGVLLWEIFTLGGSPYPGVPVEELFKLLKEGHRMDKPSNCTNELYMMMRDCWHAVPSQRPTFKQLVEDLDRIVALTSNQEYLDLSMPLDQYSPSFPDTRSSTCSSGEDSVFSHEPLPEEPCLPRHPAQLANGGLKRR
# Fibroblast growth factor receptor 4, sequence (P22455 whole entry): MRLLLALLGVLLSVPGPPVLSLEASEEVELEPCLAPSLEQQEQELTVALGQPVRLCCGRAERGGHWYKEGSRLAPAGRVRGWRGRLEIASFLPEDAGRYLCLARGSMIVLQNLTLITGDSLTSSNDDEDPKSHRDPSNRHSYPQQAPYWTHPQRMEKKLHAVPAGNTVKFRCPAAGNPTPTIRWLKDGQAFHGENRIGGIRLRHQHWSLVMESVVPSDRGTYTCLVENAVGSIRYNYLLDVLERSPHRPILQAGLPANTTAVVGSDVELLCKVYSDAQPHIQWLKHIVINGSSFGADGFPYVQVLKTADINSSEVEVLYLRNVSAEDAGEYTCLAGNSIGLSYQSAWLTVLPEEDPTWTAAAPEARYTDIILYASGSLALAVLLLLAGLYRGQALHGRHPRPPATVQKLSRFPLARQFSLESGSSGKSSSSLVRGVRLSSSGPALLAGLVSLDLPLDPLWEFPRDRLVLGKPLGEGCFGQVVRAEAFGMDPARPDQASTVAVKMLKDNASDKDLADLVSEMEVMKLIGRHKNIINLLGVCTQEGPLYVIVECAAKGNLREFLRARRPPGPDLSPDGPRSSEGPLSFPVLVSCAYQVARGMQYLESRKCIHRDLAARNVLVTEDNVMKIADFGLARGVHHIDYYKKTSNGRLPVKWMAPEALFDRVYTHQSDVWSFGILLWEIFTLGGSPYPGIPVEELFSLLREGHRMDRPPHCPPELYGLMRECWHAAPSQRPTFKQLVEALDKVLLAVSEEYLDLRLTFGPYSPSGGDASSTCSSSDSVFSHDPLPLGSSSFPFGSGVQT
IC50 [1],IC50 [2],SMILES
0.00096 µM,–,COC[C@@H](C)Nc1cc(NC(=O)N2CCCc3cc(CN4CCCCOC4=O)c(C=O)nc32)ncc1C#N
–,> 10 µM,CO[C@@H]1CCCC1Nc1cc(NC(=O)N2CCCc3cc(CN4CCOCC4=O)c(C=O)nc32)ncc1C#N (stereo partly drawn)
–,> 10 µM,COCCNc1cc(NC(=O)N2CCCc3cc(CN4CCCCOC4=O)c(C=O)nc32)ncc1C#N
